# Measurements published in ChEMBL document CHEMBL3885881, “DrugMatrix”.
# Organism: Rattus norvegicus
# Assay: DrugMatrix - Regimen: Daily Repeat
# Format: toxicity, organism-based, Sprague-Dawley
# Set-up: regimen Daily Repeat, gender Male, age 6-8 weeks
# Conditions: in vivo, po, route oral GAVAGE, vehicle .5 % CMC; for ABSOLUTE BASOPHIL / ABSOLUTE EOSINOPHIL / ABSOLUTE LYMPHOCYTE / ABSOLUTE MONOCYTE / ABSOLUTE SEGMENTED NEUTROPHIL / BASOPHIL / EOSINOPHIL / ERYTHROCYTE COUNT / HEMATOCRIT / HEMOGLOBIN / LEUKOCYTE COUNT / LYMPHOCYTE / MEAN CORPUSCULAR HEMOGLOBIN / MEAN CORPUSCULAR HEMOGLOBIN CONCENTRATION / MEAN CORPUSCULAR VOLUME / MONOCYTE / NEUTROPHIL / NUCLEATED RED BLOOD CELLS / PLATELET COUNT: tissue Blood; for ALANINE AMINOTRANSFERASE / ALBUMIN / ALKALINE PHOSPHATASE / ASPARTATE AMINOTRANSFERASE / BLOOD UREA NITROGEN / CARBON DIOXIDE / CHLORIDE / CHOLESTEROL / CREATINE PHOSPHOKINASE / CREATININE / GLUCOSE / LACTATE DEHYDROGENASE / LIPASE / PHOSPHORUS / POTASSIUM / SODIUM / TOTAL BILIRUBIN / TOTAL PROTEIN / URIC ACID: tissue Plasma
# [1] = 200 mg/kg, 120 h, dose level Low, time 5 day
# [2] = 2500 mg/kg, 72 h, dose level High, time 3 day
# [3] = 2500 mg/kg, 120 h, dose level High, time 5 day
smiles,measurement,setting,value
Cc1cnc(C(=O)NCCc2ccc(S(=O)(=O)NC(=O)NC3CCCCC3)cc2)cn1 [GLIPIZIDE],ABSOLUTE BASOPHIL,[1],0 CELLS/uL
same,ABSOLUTE EOSINOPHIL,[1],50.67 CELLS/uL
same,ABSOLUTE LYMPHOCYTE,[1],13488 CELLS/uL
same,ABSOLUTE MONOCYTE,[1],195 CELLS/uL
same,ABSOLUTE SEGMENTED NEUTROPHIL,[1],633 CELLS/uL
same,BASOPHIL,[1],0%
same,EOSINOPHIL,[1],0.33%
same,ERYTHROCYTE COUNT,[1],5.57 x10E6/uL
same,HEMATOCRIT,[1],34.23%
same,HEMOGLOBIN,[1],13.7 G/DL
same,LEUKOCYTE COUNT,[1],14.37 x10E3/uL
same,LYMPHOCYTE,[1],94%
same,MEAN CORPUSCULAR HEMOGLOBIN,[1],24.63 pg
same,MEAN CORPUSCULAR HEMOGLOBIN CONCENTRATION,[1],40 G/DL
same,MEAN CORPUSCULAR VOLUME,[1],61.53 fL
same,MONOCYTE,[1],1.33%
same,NEUTROPHIL,[1],4.33%
same,NUCLEATED RED BLOOD CELLS,[1],0 /100WBC
same,PLATELET COUNT,[1],1282.33 x10E3/uL
same,ALANINE AMINOTRANSFERASE,[1],62.33 u/L
same,ALBUMIN,[1],4.3 G/DL
same,ALKALINE PHOSPHATASE,[1],343.67 u/L
same,ASPARTATE AMINOTRANSFERASE,[1],82.67 u/L
same,BLOOD UREA NITROGEN,[1],14 mg/dL
same,CARBON DIOXIDE,[1],32.33 mmol/L
same,CHLORIDE,[1],103 MEQ/L
same,CHOLESTEROL,[1],74.67 mg/dL
same,CREATINE PHOSPHOKINASE,[1],208.33 u/L
same,CREATININE,[1],0.13 mg/dL
same,GLUCOSE,[1],118.67 mg/dL
same,LACTATE DEHYDROGENASE,[1],116.33 u/L
same,LIPASE,[1],10.67 u/L
same,PHOSPHORUS,[1],10.77 mg/dL
same,POTASSIUM,[1],6.11 MEQ/L
same,SODIUM,[1],144.93 MEQ/L
same,TOTAL BILIRUBIN,[1],0.2 mg/dL
same,TOTAL PROTEIN,[1],6.03 G/DL
same,URIC ACID,[1],0.9 mg/dL
same,ABSOLUTE BASOPHIL,[2],0 CELLS/uL
same,ABSOLUTE EOSINOPHIL,[2],83.33 CELLS/uL
same,ABSOLUTE LYMPHOCYTE,[2],11306.67 CELLS/uL
same,ABSOLUTE MONOCYTE,[2],81.67 CELLS/uL
same,ABSOLUTE SEGMENTED NEUTROPHIL,[2],861.67 CELLS/uL
same,BASOPHIL,[2],0%
same,EOSINOPHIL,[2],0.67%
same,ERYTHROCYTE COUNT,[2],5.69 x10E6/uL
same,HEMATOCRIT,[2],36.9%
same,HEMOGLOBIN,[2],14.23 G/DL
same,LEUKOCYTE COUNT,[2],12.33 x10E3/uL
same,LYMPHOCYTE,[2],91.67%
same,MEAN CORPUSCULAR HEMOGLOBIN,[2],25.07 pg
same,MEAN CORPUSCULAR HEMOGLOBIN CONCENTRATION,[2],38.57 G/DL
same,MEAN CORPUSCULAR VOLUME,[2],64.9 fL
same,MONOCYTE,[2],0.67%
same,NEUTROPHIL,[2],7%
same,NUCLEATED RED BLOOD CELLS,[2],0 /100WBC
same,PLATELET COUNT,[2],1346.67 x10E3/uL
same,ALANINE AMINOTRANSFERASE,[2],54 u/L
same,ALBUMIN,[2],4.17 G/DL
same,ALKALINE PHOSPHATASE,[2],318.33 u/L
same,ASPARTATE AMINOTRANSFERASE,[2],75.33 u/L
same,BLOOD UREA NITROGEN,[2],16 mg/dL
same,CARBON DIOXIDE,[2],31 mmol/L
same,CHLORIDE,[2],102.33 MEQ/L
same,CHOLESTEROL,[2],72.33 mg/dL
same,CREATINE PHOSPHOKINASE,[2],179.33 u/L
same,CREATININE,[2],0.15 mg/dL
same,GLUCOSE,[2],148.67 mg/dL
same,LACTATE DEHYDROGENASE,[2],104.33 u/L
same,LIPASE,[2],10 u/L
same,PHOSPHORUS,[2],11.9 mg/dL
same,POTASSIUM,[2],6.37 MEQ/L
same,SODIUM,[2],143.83 MEQ/L
same,TOTAL BILIRUBIN,[2],0.17 mg/dL
same,TOTAL PROTEIN,[2],5.63 G/DL
same,URIC ACID,[2],1.7 mg/dL
same,ABSOLUTE BASOPHIL,[3],0 CELLS/uL
same,ABSOLUTE EOSINOPHIL,[3],102.33 CELLS/uL
same,ABSOLUTE LYMPHOCYTE,[3],11867.33 CELLS/uL
same,ABSOLUTE MONOCYTE,[3],0 CELLS/uL
same,ABSOLUTE SEGMENTED NEUTROPHIL,[3],1397 CELLS/uL
same,BASOPHIL,[3],0%
same,EOSINOPHIL,[3],0.67%
same,ERYTHROCYTE COUNT,[3],5.55 x10E6/uL
same,HEMATOCRIT,[3],34.63%
same,HEMOGLOBIN,[3],14.1 G/DL
same,LEUKOCYTE COUNT,[3],13.37 x10E3/uL
same,LYMPHOCYTE,[3],88%
same,MEAN CORPUSCULAR HEMOGLOBIN,[3],25.4 pg
same,MEAN CORPUSCULAR HEMOGLOBIN CONCENTRATION,[3],40.73 G/DL
same,MEAN CORPUSCULAR VOLUME,[3],62.37 fL
same,MONOCYTE,[3],0%
same,NEUTROPHIL,[3],11.33%
same,NUCLEATED RED BLOOD CELLS,[3],0 /100WBC
same,PLATELET COUNT,[3],1273.67 x10E3/uL
same,ALANINE AMINOTRANSFERASE,[3],58 u/L
same,ALBUMIN,[3],4.37 G/DL
same,ALKALINE PHOSPHATASE,[3],329 u/L
same,ASPARTATE AMINOTRANSFERASE,[3],83.33 u/L
same,BLOOD UREA NITROGEN,[3],15 mg/dL
same,CARBON DIOXIDE,[3],30.67 mmol/L
same,CHLORIDE,[3],100.67 MEQ/L
same,CHOLESTEROL,[3],71 mg/dL
same,CREATINE PHOSPHOKINASE,[3],224.33 u/L
same,CREATININE,[3],0.19 mg/dL
same,GLUCOSE,[3],140.33 mg/dL
same,LACTATE DEHYDROGENASE,[3],117 u/L
same,LIPASE,[3],7.67 u/L
same,PHOSPHORUS,[3],11.13 mg/dL
same,POTASSIUM,[3],5.21 MEQ/L
same,SODIUM,[3],146.2 MEQ/L
same,TOTAL BILIRUBIN,[3],0.2 mg/dL
same,TOTAL PROTEIN,[3],6.17 G/DL
same,URIC ACID,[3],0.8 mg/dL
